Type in all cases: cell-based, human
Assay [1] relates to PKR-overexpressing Namalwa cells (Nam-PKR), TNF-beta production. In words: TNF-beta production in PMA/poly I:C-induced PKR-overexpressing Namalwa cells (ELISA). Particulars: 1 mM 2-AP; 20 mM PMA priming 20 hr, 200 μg/ml poly I:C induction 3 days; FIG. 2B. Here is the method: (§1) PKR-transfected Namalwa cells (Nam-PKR) were cultured at 2.5×10^5 cells/ml in DMEM/F12 medium supplemented with 10% FBS. The cells were treated with 20 mM PMA (priming) for 20 hr followed by treatment with 200 μg/ml poly I:C (induction) for 3 days in the presence of 1 mM 2-aminopurine (2-AP) or in the absence of 2-AP. One set of cells was left untreated (non-induced controls). Following treatment, the culture supernatants were collected and analyzed for TNF-alpha or for TNF-beta by ELISA according to the procedure provided by the supplier of the ELISA kits (R&D Systems). The data for cytokine induction is shown in FIGS. 2A and 2B, which illustrates that the PKR-overexpressing Namalwa cell line produces a high level of proinflammatory cytokine (TNF-alpha) under induction conditions (FIG. 2A) and that the induced levels of TNF-alpha are about 4-fold lower in the presence of the PKR inhibitor, 2-AP.
In general terms: In an ELISA, binding on a coated surface is turned into a signal by an enzyme label.

Assay [2] relates to PKR-overexpressing Namalwa cells (Nam-PKR), IFN-alpha production. In words: Dose-response inhibition of IFN-alpha production in PMA and poly r(I):poly r(C) treated PKR-overexpressing Namalwa cells. The note with it: FIG. 3.
Assay [3] relates to PKR-overexpressing Namalwa cells (Nam-PKR), TNF-alpha production. In words: TNF-alpha production in PMA/poly I:C-induced PKR-overexpressing Namalwa cells (ELISA). Particulars: 1 mM 2-AP, 20 mM PMA priming 20 hr, 200 μg/ml poly I:C induction 3 days, FIG. 2A. Here is the method:
as §1

For the compound `Nc1ncc2[nH]cnc2n1` [2-AP, 2-aminopurine], the “suppression of TNF-beta production level, with vs without the PKR inhibitor” value in assay [1] stood at 5 fold. In assay [2] (1 mM 2-AP, both experiments), the “inhibition of IFN-alpha production at 1 mM (in words)” value is recorded as “relatively ineffective”. In addition, in assay [2] (8 mM 2-AP), the “inhibition of IFN-alpha production at 8 mM (in words)” value is “completely inhibited”. Besides, the “inhibition of IFN-alpha at 5 mM relative to 1 mM” value in assay [2] (first experiment) amounted to 360 fold. For the same compound, the “inhibition of INF-alpha production between 1 mM and 5 mM” value in assay [2] (second experiment) was determined as 5 fold. The “suppression of TNF-alpha production level, with vs without the PKR inhibitor” value is reported as “about 4 fold” in assay [3] and 4 fold in assay [3] (listed as 2 AP).
